Entries after “also recorded” stand apart in the source; their conditions may differ.
Legend:
[1] = system: neurofibrillary tangles (or phosphorylated tau protein); assay: Staining of neurofibrillary tangles in brain sections of a patient with Alzheimer's disease (screening method); format: binding, human; details: for staining of neurofibrillary tangles (or phosphorylated tau protein): brain/hippocampus sections of Alzheimer's disease patient, 100 μM compound in 50% ethanol, fluorescence microscopy, compared with thioflavin S on adjacent section
From the text: (§1) The following explanation is made about a method for screening the inventive compounds. • (1) Temporal lobe or hippocampus specimens of the brain of a patient who had been definitely diagnosed pathologically as Alzheimer's disease and of a normal aged individual were used. These specimens were provided from Fukushimura Hospital, our joint research facility, with the consent to their use for research purpose received from the bereaved family of the patient (BF Research Laboratories Institutional Ethics Board Permission No. RS-99-02). • (2) The brain tissues embedded in paraffin were sliced 6 or 8 μm thick, extended on slides, and dried. The paraffin-embedded brain sections were deparaffined by washing sequentially with xylene (10 minutes, twice), 100% ethanol (5 minutes, twice), 95% ethanol (5 minutes, twice), and a stream of water (10 minutes). • (3) Pre-treatment for staining with compounds of the present invention involved treating the sections for eliminating self-fluorescence due to lipofuscin. First, the deparaffined sections were immersed into a 10% formalin solution for 60 minutes and washed with PBS (phosphate-buffered saline) for 5 minutes, followed by immersion into a 0.25% solution of KMnO4 for 90 minutes. After washing twice with PBS for 2 minutes each, the sections were immersed into a solution of 0.1% K2S2O5/oxalic acid for about 30 seconds each, and then washed three times with PBS for 2 minutes each. • (4) About 150 μl of a 100 μM solution of a compound of the present invention dissolved in 50% ethanol was added dropwise onto the sections and allowed the reaction to be carried out for 10 minutes. The sections were dipped into tap water five times, and then 50% ethanol three to five times, followed by immediate classification. After that, the sections were immersed into PBS for 60 minutes, enclosed with Fluor Save Reagent (Calbiochem), and examined under UV-B excitation using a fluorescent microscope (Nikon, Eclips E800). Pictures were taken using a digital camera (Plaroid [sic] PDMCII).
Immunostaining was carried out as follows: • (1) After the sections were deparaffined, the sections were washed twice with distilled water for 2 minutes each, tissues were marked with an Immunopen. About 150 μl of 3% hydrogen peroxide (diluted in methanol) was added dropwise and allowed to stand at room temperature for 10 minutes. • (2) The sections were-washed twice with cold PBS-Tween 20 for 5 minutes each, and two drops of blocking serum were added and allowed the reaction to be carried out at 37° C. for 30 minutes. Excess water was removed, and two drops of pSer422, an antibody specific to phosphorylated tau (Wako Phosphorylated Tau Immunohistostain Kit 299-57301) and allowed the reaction to be carried out overnight at 4° C. • (3) On the next day, the sections were washed five times with cold PBS-Tween 20 for 2 minutes each, and two drops of a solution of goat anti-rabbit IgG conjugated to biotin were added and allowed the reaction to be carried out at 37° C. for 1 hour. […]

[2] = Testing of acute toxicity, intravenous administration; details: male, Crj:CD1, mouse, in vivo, mice, observed up to 7 days, read-out: Maximum Tolerated Dose
Experimental: Acute toxicity of the inventive compounds was determined employing mice by intravenous administration. Male Crj:CD1 mice were used and divided into groups of 4 mice, with an average weight of each group of 30-34 g. Each compound was dissolved in saline, 1N HCl, or a mixture of 1N HCl/polyethylene glycol 400, and then diluted with distilled water for injection, and administered via tail vein. Up to 7 days after administration, observations were made.

[3] = Testing of blood-brain barrier permeability; format: in vivo; details: mice, two minutes after intravenous administration
Experimental: Compounds of the present invention were intravenously administered to mice to determine their in vivo blood-brain barrier permeability. • (1) Mice utilized S1c:ICR weighing 30-40 g (7 weeks old, n=3) (Nippon SLC). • (2) A test compound was dissolved in 1N HCl, and then diluted with purified water, and injected via tail vein. Two minutes after administration, the mice, under ether anesthesia, were subjected to taking blood from the abdominal aorta with a heparin-treated syringe and removing the brain. • (3) After taking blood, blood samples were centrifuged at 14,000 rpm at 4° C. for 10 minutes, and their supernatants were kept at −80° C. as plasma sample. The brain (including cerebellum) was kept at −80° C. after its removal. • (4) The plasma sample, when used, was thawed, diluted with purified water, and then applied to a conditioned C18 solid-phase extraction cartridge (bond elute C18, 200 mg, Lot. 070864, Varian), followed by elution with methyl alcohol. • (5) The brain material, when used, were subjected to measuring its wet weight with the brain remaining frozen, and saline was added for homogenization. The homogenate was centrifuged for 10 minutes, and the supernatant was applied to a conditioned C18 solid-phase extraction cartridge and eluted with methyl alcohol. • (6) The test compound was detected at its maximum absorbance (a UV/VIS detector, Waters) and fluorescence (an FS-8020 fluorometer, Tosoh) employing high performance liquid chromatography. • (7) For each of the plasma and brain, the content of the test compound in the plasma or brain (%ID (injected dose)/ml or g) was determined, relative to the administered-dose.

[4] = system: senile plaques; assay: Staining of senile plaques in hippocampus sections of the brain of a patient with Alzheimer's disease; format: binding, human; details: compared with thioflavin S on adjacent section
From the text: as §1

[5] = biological target: T1, Aβ1-40 taking β-sheet structures (Homo sapiens, UniProt P05067); assay: Binding to amyloid β-protein on slides; details: Aβ1-40 on slides; 1 μM solution of test chemical
T1 construct: Aβ1-40 (Peptide Institute, Inc., Lot No. 520311, MW: 4329.8); purchased Peptide Institute, Inc. Lot No. 520311
Experimental: Properties of binding to amyloid β-protein were examined as follows: • (1) Aβ1-40 (Peptide Institute, Inc., Lot No. 520311, MW: 4329.8) was dissolved in 50 mM potassium phosphate buffer (pH 7.4) at a concentration of 500 μM, and incubated at 37° C. for 3 days or longer, thereby making the protein take β-sheet structures. • (2) After incubation, the Aβ solution was vortexed and diluted to 50 μM for use. • (3) 20 μl of the Aβ1-40 solution was dropped onto a poly-L-lysine-coated slide (MICRO SLIDE GLASS S7441, […]) and dried on an extender (Sakura PS-C2) at about 45° C. • (4) The Aβ1-40 on the slide was covered with 20 μl of 1 μM solution of a chemical to be tested, allowed to stand at room temperature for about 10 minutes, and then washed with a stream of water (tap water), followed by examination under a microscope.

T1 sequence (P05067 672-711 limits assumed): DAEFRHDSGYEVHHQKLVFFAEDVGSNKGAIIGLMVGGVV

Compound	staining of neurofibrillary tangles (or phosphorylated tau protein) [1]	MTD at 7 days [2]	Brain content (blood-brain barrier permeability) [3]	Plasma content [3]	staining of senile plaques [4]	binding to Aβ1-40 taking β-sheet structures (fluorescence) [5]	staining of phosphorylated tau protein recognized by pSer422 antibody ([1]; hippocampus sections of Alzheimer's disease patient, adjacent section immunostained with pSer422)
CCN(CC)c1ccc(-c2ccc3ccccc3n2)cc1 [Compound N-313, 2-(4-(diethylamino)phenyl)quinoline]	stained neurofibrillary tangles (or phosphorylated tau protein)	≥ 10 mg/kg	4.6 % ID/g or ml	1.1 % ID/g or ml	–	–	–
Cc1ccc2ccc(-c3ccc(N(C)C)cc3)nc2c1 [SA-820, 2-(4-(dimethylamino)phenyl)-7-methylquinoline]	–	–	–	–	stained senile plaques (wedge-shaped arrowheads) with a clearly weaker degree than that of thioflavin S; also recorded: stained senile plaques (wedge-shaped arrowheads) with a clearly-weaker degree than that of thioflavin S	–	–
CN(C)c1ccc(-c2ccc3ccccc3n2)cc1 [Compound N-310, 2-(4-(dimethylamino)phenyl)quinoline]	stained neurofibrillary tangles (or phosphorylated tau protein)	–	15.0 % ID/g or ml	1.0 % ID/g or ml	–	–	–
Cc1ccc2c(c1)sc(-c1ccc(N(C)C)cc1)[n+]2C.[Cl-] [thioflavin T, reference compound]	–	–	–	–	–	significant binding to this Aβ1-40; also recorded: significant binding to the Aβ1-40 protein	–
CNc1ccc(-c2ccc3ccccc3n2)cc1 [BF-158, 2-(4-(methylamino)phenyl)quinoline]	–	≥ 10 mg/kg	9.7 % ID/g or ml	1.8 % ID/g or ml	–	–	–
thioflavin S [reference compound]	stained both senile plaques (wedge-shaped arrowheads) and neurofibrillary tangles (or phosphorylated tau protein); also recorded: stained both senile plaques and neurofibrillary tangles	–	–	–	stained both senile plaques (wedge-shaped arrowheads) and neurofibrillary tangles (or phosphorylated tau protein); also recorded: stained both senile plaques and neurofibrillary tangles	–	–
Nc1ccc(-c2ccc3ccccc3n2)cc1 [BF-170, 2-(4-(amino)phenyl)quinoline]	stained only neurofibrillary tangles (or phosphorylated tau protein)	≥ 10 mg/kg	9.1 % ID/g or ml	1.4 % ID/g or ml	stained only neurofibrillary tangles (or phosphorylated tau protein)	hardly bound to this Aβ1-40 (fluorescence was not observed); also recorded: hardly bound to the Aβ1-40 protein (fluorescence was not observed)	stained phosphorylated tau protein which was recognized by pSer422
CN(C)c1ccc(-c2ccc3c(ccc4ccccc43)n2)cc1 [SA-821, 3-(4-(dimethylamino)phenyl)benzo(f)quinoline]	–	–	–	–	stained senile plaques (wedge-shaped arrowheads) with a clearly weaker degree than that of thioflavin S	–	–

From US20050009865A1, “Quinoline derivative as diagnostic probe for disease with tau protein accumulation” (priority 2002, published 2005)
